Measured values from patent US20050033056A1, “Hydroxylated indole derivatives and uses thereof” (priority 2001, published 2005).
pKi: −log10 of the molar value. “Also recorded” adds a separate entry of the source. Where two headings read alike, the source gives them in different places.

Assays:
[1] = target: T1, cDNA-expressed recombinant CYP2C19 (Homo sapiens, UniProt P33261); assay: Apparent Ki with recombinant CYP2C19 (S-mephenyloin 4'-hydroxylation; Dixon plots, SNLR); type: in vitro ADME; details: for pKi: recombinant CYP2C19
T1 construct: purchased Gentest Corp. (Woburn, Mass.); host or cells: insect cells (microsomal preparation)
Method: If inhibition was detected, the inhibitory potency was determined using recombinant CYPs. Compound 1 appeared to inhibit the activities of CYP2D6 and CYP2C19. Therefore, three concentrations of S-mephenyloin (30, 80, and 200 μM) and bufuralol (5, 10, and 40 μM), and a range of concentrations (0-200 μM) of Compound 1 were used for the construction of Dixon plots and simultaneously nonlinear regression (SNLR) analyses were performed. The incubation conditions and sample preparations were the same as previously described.
4. CYP2C19-mediated S-mephenyloin 4′-hydroxylation (Goldstein et al., Biochemistry 33:1743-1752, 1994): The LC/MS/MS system, including the separation column, described for the bufuralol hydroxylation was used. The isocratic mobile phase, 100 mM formic acid-acetonitrile/75:25, was run at 0.25 ml/minutes. The operation of the LC/MS/MS was controlled by MacChrom (Version 1.6). The MS/MS was operated at positive ESI with a 5.5 kV ionization potential and 100° C. ion source temperature. MRM was applied for the quantification. The MRM transition ions were m/z 235→150 for 4′-hydroxymephenytoin, and m/z […] for the IS R-propranolol.
Data were acquired and analyzed by ChemStation (Version 6.03, Hewlett Packard, Waldbronn, Germany) for 6-, 7-, and 10-hydroxywarfarin and 6-hydroxychlorzoxazone, and MacQuan (Version 1.6, PE Biosystem, Foster City, Calif.) for 1′-hydroxybufuralol and 4′-hydroxymephenytoin. Quantification was based on peak area ratios of metabolites over the respective IS against the respective concentration of the metabolites. The standard curves were generated by linear regression with (6-, 7-, and 10-hydroxywarfarin, 1′-hydroxybufuralol, and 4′-hydroxymephenytoin) or without (6-hydroxychlorzoxazone) a weighting factor (1/x^2). The metabolic rates were determined using Excel (Microsoft Office 97, Microsoft Corporation, Redmond, Wash.) or SigmaPlot (Version 6.00, SPSS Inc. Chicago, Ill.). […]

CYP3A4 = CYP3A4 (Homo sapiens, UniProt P08684); assay: Compound 1 metabolism / metabolite formation by recombinant CYP3A4; type: in vitro ADME; set-up: purchased Gentest Corp. (Woburn, Mass.); host or cells: insect cells (microsomal preparation)
Method: The metabolism of Compound 1 was determined by the disappearance of Compound 1 or the appearance of Compound 1 metabolites in reaction mixtures as compared to respective controls. Compound 1 was incubated in the reconstituted in vitro reaction systems containing pooled human liver S9 fractions, microsomal preparations, or recombinant hepatic CYP forms, including CYP1A2, CYP2C9, CYP2C19, CYP2D6, CYP2E1, and CYP3A4. The reaction mixture (total volume of 250 μL) contained 0.5 mg of liver microsomal protein, 50 or 25 pmol of recombinant CYP, and Compound 1 (50-80 μM) in 50 mM Tris buffer containing 15 mM MgCl2 (pH 7.4). After incubating at 37° C. with gentle shaking for 1 minute, the reaction was initiated by adding 25 μL of NADPH solution (20 mg/mL), and was carried out for 1 hour. The reaction was terminated by quickly cooling the test tube on ice, followed by the addition of an equal volume of 100% methanol. The samples were centrifuged in a desktop centrifuge at 14,000 rpm for 5 minutes, and the supernatants were filtered through syringe filters (13 mm, 0.45 μm). The filtrates were subjected to analysis using LC/MS (ion trap) or LC/MS/MS.
1. LC/MS (LCQ ion trap mass spectrometer, Finnigan Corp., San Jose, Calif.): Hewlett Packard 1100 HPLC system (Waldbronn, Germany) consisted of a binary pump, an autosampler, a column compartment unit, and an online variable wavelength UV detector (VWD). The detector was monitored at 270 nm, which is the UVmax of Compound 1 predetermined by scanning between 225-400 nm using a photodiode array detector (PDA). The metabolites were separated on a Hewlett Packard Eclipse C18 column (150×2.1 mm). The mobile phases were 10 nmM ammonium acetate at pH 4.8 (A) and acetonitrile (B). The gradient (B) was 10% (0-6 minutes), 22% (12-22 minutes), 90% (25-30 minutes), and 10% (31 minutes and after). The flow rate was 0.25 mL/minute. Software Navigator (Version 1.2, Finnigan Corp.) was used to control the HPLC and MS and to acquire the data. […]

T1 sequence (P33261 whole entry): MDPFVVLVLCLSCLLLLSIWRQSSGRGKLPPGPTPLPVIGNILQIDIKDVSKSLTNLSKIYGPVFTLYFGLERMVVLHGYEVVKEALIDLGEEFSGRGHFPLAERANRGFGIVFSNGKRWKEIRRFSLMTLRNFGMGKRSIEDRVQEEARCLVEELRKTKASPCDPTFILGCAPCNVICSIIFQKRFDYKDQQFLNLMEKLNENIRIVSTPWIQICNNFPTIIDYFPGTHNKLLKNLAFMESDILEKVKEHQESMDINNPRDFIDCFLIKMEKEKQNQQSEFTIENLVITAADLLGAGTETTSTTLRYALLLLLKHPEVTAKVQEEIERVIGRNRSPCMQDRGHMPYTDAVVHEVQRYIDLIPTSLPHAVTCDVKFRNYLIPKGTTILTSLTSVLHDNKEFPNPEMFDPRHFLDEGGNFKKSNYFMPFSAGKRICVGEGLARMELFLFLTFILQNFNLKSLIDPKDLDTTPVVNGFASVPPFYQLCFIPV
Chain of CYP3A4 (P08684 whole entry): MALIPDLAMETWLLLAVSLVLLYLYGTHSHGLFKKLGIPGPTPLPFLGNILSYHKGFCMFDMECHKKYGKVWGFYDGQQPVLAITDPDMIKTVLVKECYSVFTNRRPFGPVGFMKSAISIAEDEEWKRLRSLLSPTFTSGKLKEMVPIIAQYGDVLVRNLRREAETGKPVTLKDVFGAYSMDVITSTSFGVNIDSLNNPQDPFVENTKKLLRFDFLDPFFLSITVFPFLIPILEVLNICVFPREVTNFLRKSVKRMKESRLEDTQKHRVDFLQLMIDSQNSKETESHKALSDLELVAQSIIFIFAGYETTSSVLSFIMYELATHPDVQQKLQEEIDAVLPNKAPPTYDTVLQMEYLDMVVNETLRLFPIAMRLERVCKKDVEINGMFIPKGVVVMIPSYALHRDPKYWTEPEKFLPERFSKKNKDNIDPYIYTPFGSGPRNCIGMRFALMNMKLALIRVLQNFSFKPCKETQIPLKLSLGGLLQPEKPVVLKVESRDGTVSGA

Q: Which results are given for `CNC(=O)Cc1ccc2ccn(C3CCN(CCc4ccccc4F)CC3)c2c1` [Compound 1, N-methyl-[1-[1-(2-fluorophenethyl)piperidine-4-yl]-1H-indol-6-yl] acetamide]?
A: type of inhibition of CYP2C19 ([1]; Dixon plots and SNLR analyses): competitive inhibitor; also recorded: primarily, if not fully, competitive; pKi ([1]; Dixon plots, S-mephenyloin 30, 80, 200 μM, read-out: apparent Ki, CYP2C19, estimated by Dixon plots): 4.35 to 4.60; pKi ([1]; SNLR, competitive inhibition model, read-out: apparent Ki, CYP2C19 inhibition, determined by SNLR): 4.32; metabolism of Compound 1 by CYP3A4 (in words) (CYP3A4; approximately 50 μM of Compound 1): metabolized; Rel. Amount (%) (CYP3A4; recombinant CYP3A4, estimated by UV absorbance at 270 nm, metabolite formed or Compound 1 left after 1 hour with NADPH): 23%
